{
  "source": "patent US20250066389A1",
  "about": "“HETEROCYCLIC AMIDES AND METHODS OF USING THE SAME” (Rgenta Therapeutics, Inc., priority 2021, published 2025)",
  "note": "Structures can show the parent of a compound that is named as a salt.",
  "data": [
    {"tested_on": "PMS1", "experiment": "Mini-Gene Reporter Assay—PMS1 (firefly luciferase mini-gene reporter transiently transfected into HEK293 cells)", "assay_type": "cell-based", "settings": "Homo sapiens; at 5 uM; mini-gene firefly luciferase reporter in HEK293 cells; read-out: PMS1 % Effect at 5 uM", "procedure,_shortened": "(§1)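 Luminescence (RLU) read-out of exon inclusion: compound dilutions, tested in duplicate, act on transiently transfected HEK293 cells carrying a firefly luciferase reporter fused downstream of the PMS1 skipped-exon region. Potency derived by Levenberg-Marquardt curve fitting, with percent effect at 5 μM.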", "units": {"activation at 5 µM": "%"}, "values": [
      {"smiles": "CCOc1cc2nn(C)cc2cc1C(=O)Nc1ccc(N2CCN(C(=O)OC(C)OC(=O)C(C)C)[C@@H](C)C2)nn1", "note": "(stereo partly drawn) [Compound 747, 1-(isobutyryloxy)ethyl (2S)-4-(6-(6-ethoxy-2-methyl-2H-indazole-5-carboxamido)pyridazin-3-yl)-2-methylpiperazine-1-carboxylate]", "activation at 5 µM": "> 75"},
      {"smiles": "CCOc1cc2nc(C)cn2cc1C(=O)Nc1ccc(N2CC3CNCC3C2)nn1", "note": "(stereo not shown) [Compound 748, (7-ethoxy-N-(6-(hexahydropyrrolo[3,4-c]pyrrol-2(1H)-yl)pyridazin-3-yl)-2-methylimidazo[1,2-a]pyridine-6-carboxamide formate]", "activation at 5 µM": "> 75"},
      {"smiles": "CCOc1cc2nn(C)cc2cc1C(=O)Nc1ccc(N2CCNCC2)nn1", "note": "[Compound 749, 6-ethoxy-2-methyl-N-(6-(piperazin-1-yl)pyridazin-3-yl)-2H-indazole-5-carboxamide hydrochloride]", "activation at 5 µM": "> 75"},
      {"smiles": "CCOc1cc2nn(C)cc2cc1C(=O)Nc1ccc(N2CCN[C@H](C)C2)nn1", "note": "[Compound 750, (R)-6-ethoxy-2-methyl-N-(6-(3-methylpiperazin-1-yl)pyridazin-3-yl)-2H-indazole-5-carboxamide hydrochloride]", "activation at 5 µM": "> 75"},
      {"smiles": "CCOc1cc2nn(C)cc2cc1C(=O)Nc1ccc(N2C[C@@H](C)N[C@@H](C)C2)nn1", "note": "[Compound 751, N-(6-((3S,5R)-3,5-dimethylpiperazin-1-yl)pyridazin-3-yl)-6-ethoxy-2-methyl-2H-indazole-5-carboxamide hydrochloride]", "activation at 5 µM": "> 75"},
      {"smiles": "CCOc1cc2nn(C)cc2cc1C(=O)Nc1ccc(C2=CC(C)NCC2)nn1", "note": "(stereo not shown) [Compound 752, 6-ethoxy-2-methyl-N-(6-(6-methyl-1,2,3,6-tetrahydropyridin-4-yl)pyridazin-3-yl)-2H-indazole-5-carboxamide]", "activation at 5 µM": "> 75"},
      {"smiles": "CCOc1cn2nc(C)cc2cc1C(=O)Nc1ccc(N2CCNCC2)nn1", "note": "[Compound 753, 6-ethoxy-2-methyl-N-(6-(piperazin-1-yl)pyridazin-3-yl)pyrazolo[1,5-a]pyridine-5-carboxamide hydrochloride]", "activation at 5 µM": "> 75"}
    ]},
    {"tested_on": "PMS1", "experiment": "Mini-Gene Reporter Assay—PMS1 (firefly luciferase mini-gene reporter transiently transfected into HEK293 cells)", "assay_type": "cell-based", "settings": "Homo sapiens; mini-gene firefly luciferase reporter in HEK293 cells", "procedure,_shortened": "as §1", "units": {"IC50": "µM"}, "values": [
      {"smiles": "CCOc1cc2nc(C)cn2cc1C(=O)Nc1ccc(N2CCN(C)CC2)nn1", "note": "[Compound 729, 7-ethoxy-2-methyl-N-(6-(4-methylpiperazin-1-yl)pyridazin-3-yl)imidazo[1,2-a]pyridine-6-carboxamide]", "IC50": "1 to 10"},
      {"smiles": "CCOc1nc2nn(C)cc2cc1C(=O)Nc1ccc(N2CCNCC2)cn1", "note": "[Compound 730, 6-ethoxy-2-methyl-N-(5-(piperazin-1-yl)pyridin-2-yl)-2H-pyrazolo[3,4-b]pyridine-5-carboxamide]", "IC50": "1 to 10"},
      {"smiles": "CCOc1nc2nc(C)cn2cc1C(=O)Nc1ccc(N2CCN(C)CC2)nn1", "note": "[Compound 731, 7-ethoxy-2-methyl-N-(6-(4-methylpiperazin-1-yl)pyridazin-3-yl)imidazo[1,2-a]pyrimidine-6-carboxamide formic acid]", "IC50": "1 to 10"},
      {"smiles": "CCOc1nc2nc(C)cn2cc1C(=O)Nc1ccc(N2CCNCC2)nn1", "note": "[Compound 732, 7-ethoxy-2-methyl-N-(6-(piperazin-1-yl)pyridazin-3-yl)imidazo[1,2-a]pyrimidine-6-carboxamide formate]", "IC50": "1 to 10"},
      {"smiles": "CCOc1cc2nc(C)cn2cc1C(=O)Nc1ccc(N2CCC(NC(C)(C)C)C2)nn1", "note": "(stereo not shown) [Compound 733, N-(6-(3-(tert-butylamino)pyrrolidin-1-yl)pyridazin-3-yl)-7-ethoxy-2-methylimidazo[1,2-a]pyridine-6-carboxamide]", "IC50": "1 to 10"},
      {"smiles": "CCOc1cc2nn(C)cc2cc1C(=O)Nc1cnc(N2CCNC(C)(C)C2)cn1", "note": "[Compound 734, N-(5-(3,3-dimethylpiperazin-1-yl)pyrazin-2-yl)-6-ethoxy-2-methyl-2H-indazole-5-carboxamide hydrochloride]", "IC50": "1 to 10"},
      {"smiles": "COc1cc2nc(C)cn2cc1C(=O)Nc1ccc(C2CCNCC2)cn1", "note": "[Compound 735, 7-methoxy-2-methyl-N-(5-(piperidin-4-yl)pyridin-2-yl) imidazo[1,2-a]pyridine-6-carboxamide hydrochloride]", "IC50": "1 to 10"},
      {"smiles": "COc1cc2nn(C)cc2cc1C(=O)Nc1cnc(N2CCN[C@@H](C)C2)cn1", "note": "[Compound 736, (S)-6-methoxy-2-methyl-N-(5-(3-methylpiperazin-1-yl)pyrazin-2-yl)-2H-indazole-5-carboxamide hydrochloride]", "IC50": "1 to 10"},
      {"smiles": "CCOc1cc2nc(C)cn2cc1C(=O)Nc1ccc(N2CCN(C)[C@@H](C)C2)nn1", "note": "[Compound 737, (S)—N-(6-(3,4-dimethylpiperazin-1-yl)pyridazin-3-yl)-7-ethoxy-2-methylimidazo[1,2-a]pyridine-6-carboxamide formate]", "IC50": "1 to 10"},
      {"smiles": "CCOc1cc2nn(C)cc2cc1C(=O)Nc1ccc(N2CCN3CCC[C@H]3C2)nn1", "note": "[Compound 738, (S)-6-ethoxy-N-(6-(hexahydropyrrolo[1,2-a]pyrazin-2(1H)-yl)pyridazin-3-yl)-2-methyl-2H-indazole-5-carboxamide]", "IC50": "1 to 10"},
      {"smiles": "CCOc1cc2nn(C)cc2cc1C(=O)Nc1ccc(N2CCN3CCC[C@@H]3C2)nn1", "note": "[Compound 739, (R)-6-ethoxy-N-(6-(hexahydropyrrolo[1,2-a]pyrazin-2(1H)-yl)pyridazin-3-yl)-2-methyl-2H-indazole-5-carboxamide formate]", "IC50": "1 to 10"},
      {"smiles": "CCOc1cc2nc(C)cn2cc1C(=O)Nc1ccc(N2C[C@@H](C)N(C)[C@@H](C)C2)nn1", "note": "[Compound 740, 7-ethoxy-2-methyl-N-(6-((3S,5R)-3,4,5-trimethylpiperazin-1-yl)pyridazin-3-yl)imidazo[1,2-a]pyridine-6-carboxamide]", "IC50": "1 to 10"},
      {"smiles": "CCOc1cc2nc(C)cn2cc1C(=O)Nc1cc(C)c(N2CCN[C@@H](C)C2)nn1", "note": "[Compound 741, (S)-7-ethoxy-2-methyl-N-(5-methyl-6-(3-methylpiperazin-1-yl)pyridazin-3-yl)imidazo[1,2-a]pyridine-6-carboxamide formate]", "IC50": "1 to 10"},
      {"smiles": "CCOc1nc2nn(C)cc2cc1C(=O)Nc1cnc(N2CCNCC2)cn1", "note": "[Compound 742, 6-ethoxy-2-methyl-N-(5-(piperazin-1-yl)pyrazin-2-yl)-2H-pyrazolo[3,4-b]pyridine-5-carboxamide hydrochloride]", "IC50": "1 to 10"},
      {"smiles": "CCOc1cc2nn(C)cc2cc1C(=O)Nc1cnc(N2CCN(C)[C@@H](C)C2)cn1", "note": "[Compound 743, (S)—N-(5-(3,4-dimethylpiperazin-1-yl)pyrazin-2-yl)-6-ethoxy-2-methyl-2H-indazole-5-carboxamide formate]", "IC50": "1 to 10"},
      {"smiles": "CCOc1cn2nc(C)cc2cc1C(=O)Nc1cnc(N2C[C@@H](C)N[C@@H](C)C2)cn1", "note": "[Compound 744, N-(5-((3S,5R)-3,5-dimethylpiperazin-1-yl)pyrazin-2-yl)-6-ethoxy-2-methylpyrazolo[1,5-a]pyridine-5-carboxamide hydrochloride]", "IC50": "1 to 10"},
      {"smiles": "CCOc1cc2nc(C)cn2cc1C(=O)Nc1ccc(N2CC3CN(C)CC3C2)nn1", "note": "(stereo not shown) [Compound 745, 7-ethoxy-2-methyl-N-(6-(5-methylhexahydropyrrolo[3,4-c]pyrrol-2(1H)-yl)pyridazin-3-yl)imidazo[1,2-a]pyridine-6-carboxamide formate]", "IC50": "1 to 10"},
      {"smiles": "COc1cc2nn(C)cc2cc1C(=O)Nc1cnc(N2CCNCC2)cn1", "note": "[Compound 746, 6-methoxy-2-methyl-N-(5-(piperazin-1-yl)pyrazin-2-yl)-2H-indazole-5-carboxamide formate]", "IC50": "1 to 10"}
    ]}
  ]
}
